Experimental data published in ChEMBL document CHEMBL3124857, “Encoded library technology as a source of hits for the discovery and lead optimization of a potent and selective class of bactericidal direct inhibitors of Mycobacterium tuberculosis InhA” (J Med Chem, 2014).

Test system: Mycobacterium tuberculosis
Test: Selectivity for wild type Mycobacterium tuberculosis H37Rv ATCC 25618 over hygromycin-resistance Mycobacterium tuberculosis H37Rv ATCC 25618 overexpressing InhA
Format: functional

**Q.** `CCNC(=O)[C@@H]1C[C@@H](NC(=O)c2cc(CC)nn2C)CN1C(=O)c1coc2ccccc12` was tested. Which Selectivity ratio did it give?
**A.** 16
